For assay [1], the target named is Kelch-like ECH-associated protein 1 (Rattus norvegicus) (UniProt P57790). The assay is described as follows: Binding affinity to Keap1 in rat HBZY-1 cells assessed as induction of Keap1/Nrf2 signaling by measuring increase in NQO-1 mRNA expression at 6 uM by RT-PCR analysis. In kind it is cell-based.
Assay [2] shares this target. The assay is described as follows: Binding affinity to Keap1 in rat HBZY-1 cells assessed as induction of Keap1/Nrf2 signaling by measuring increase in NQO-1 protein expression by Western blot analysis. The class given is cell-based.
The test system of the next assay is HBZY-1. The assay is described as follows: Cytoprotection activity against H2O2-induced cell death in rat HBZY-1 cells assessed as cell viability at 6 uM preincubated with compound for 2 hrs followed by H2O2 addition and measured after 24 hrs by MTT assay (reference value: 62.1%). In kind it is functional. The note with it: read-out: Activity.
Assay [3] deals with Kelch-like ECH-associated protein 1 (Rattus norvegicus) (UniProt P57790). The assay is described as follows: Binding affinity to Keap1 in rat HBZY-1 cells assessed as induction of Keap1/Nrf2 signaling by measuring increase in HO-1 protein expression by Western blot analysis. In kind it is cell-based.
Assay [4] shares this target. The assay is described as follows: Binding affinity to Keap1 in rat HBZY-1 cells assessed as induction of Keap1/Nrf2 signaling by measuring increase in GCLC protein expression by Western blot analysis. The class given is cell-based.
Assay [5] has the same target. The assay is described as follows: Binding affinity to Keap1 in rat HBZY-1 cells assessed as induction of Nrf2 nuclear translocation by measuring increase in ratio of nuclear to cytosolic Nrf2 level by Western blot analysis. In kind it is cell-based.
Assay [6] has the same target. The assay is described as follows: Binding affinity to Keap1 in rat HBZY-1 cells assessed as induction of Keap1/Nrf2 signaling by measuring increase in GCLM mRNA expression at 6 uM by RT-PCR analysis. In kind it is cell-based.
The target is the same in assay [7]. The assay is described as follows: Binding affinity to Keap1 in rat HBZY-1 cells assessed as induction of Keap1/Nrf2 signaling by measuring increase in GCLM protein expression by Western blot analysis. The class given is cell-based.
The target is the same in assay [8]. The assay is described as follows: Binding affinity to Keap1 in rat HBZY-1 cells assessed as induction of Keap1/Nrf2 signaling by measuring increase in GCLC mRNA expression at 6 uM by RT-PCR analysis. In kind it is cell-based.
Assay [9] shares this target. The assay is described as follows: Binding affinity to Keap1 in rat HBZY-1 cells assessed as induction of Keap1/Nrf2 signaling by measuring increase in HO-1 mRNA expression at 6 uM by RT-PCR analysis. In kind it is cell-based.

Activity calls are given as the source filed them. The rule behind the calls is not given here.

Kelch-like ECH-associated protein 1 (Rattus norvegicus), sequence (P57790 whole entry): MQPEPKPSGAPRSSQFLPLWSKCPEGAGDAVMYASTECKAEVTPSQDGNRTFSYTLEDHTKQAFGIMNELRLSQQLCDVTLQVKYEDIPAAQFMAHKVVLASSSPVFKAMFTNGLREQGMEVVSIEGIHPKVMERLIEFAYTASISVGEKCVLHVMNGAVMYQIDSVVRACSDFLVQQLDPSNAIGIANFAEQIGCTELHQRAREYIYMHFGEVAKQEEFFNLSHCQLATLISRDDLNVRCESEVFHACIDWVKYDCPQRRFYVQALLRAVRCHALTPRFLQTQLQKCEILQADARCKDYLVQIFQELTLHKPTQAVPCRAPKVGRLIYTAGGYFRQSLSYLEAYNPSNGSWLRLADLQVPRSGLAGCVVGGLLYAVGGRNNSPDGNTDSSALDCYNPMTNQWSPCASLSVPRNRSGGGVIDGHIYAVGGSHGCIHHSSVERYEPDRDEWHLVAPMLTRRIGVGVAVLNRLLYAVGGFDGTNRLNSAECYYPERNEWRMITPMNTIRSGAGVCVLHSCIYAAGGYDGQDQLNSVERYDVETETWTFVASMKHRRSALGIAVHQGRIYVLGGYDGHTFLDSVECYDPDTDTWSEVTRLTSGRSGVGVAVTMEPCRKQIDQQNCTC

Consider `Oc1ccc(/C=C/c2cc(O)cc(O)c2)cc1` [RESVERATROL], for which the outcome in assay [1], in assay [2], in assay [3], in assay [4], in [5] and in [6] was Active. The result in assay [7], in assay [8] and in assay [9] was Active. The viability at 6 µM with HBZY-1 was found to be 76.8%.

The values above are taken from ChEMBL document CHEMBL4406808, “Synthesis and assessment of phenylacrylamide derivatives as potential anti-oxidant and anti-inflammatory agents” (Eur J Med Chem, 2019).
